Laboratory results: PMC12503906, “Novel Pyrazolo [1,5‐a]−1,3,5‐Triazine Derivatives as CDK7 Inhibitors: Synthesis and Biological Insights in Pancreatic Ductal Adenocarcinoma Models” (Chemmedchem, 2025)

Assays:
[1] = test system: peptide substrates specific to tyrosine kinases; experiment: Kinase activity profiling, PamChip array, peptide substrates / other kinases; type: cell-based; details: PDAC‐3 primary cells, IC50 concentration, 2 h, Pamgene array
Procedure: (§1) A Kinase activity profiling was conducted using a PamChip (Pamgene, s‐Hertogenbosch, The Netherlands) array containing 144 peptide substrates specific to tyrosine kinases to assess activity changes upon treatment with compounds 1b and 1g. Experiments were carried out in PDAC3 cells, using biological triplicates comprising three untreated controls and three samples treated for 2 h with either compound at their respective 1 × IC50 concentrations, following protocols adapted from previous studies.^[ [38] ^] Protein concentrations were quantified using the Bio‐Rad protein assay, which is based on the Bradford method (Bio‐Rad, Hercules, CA). For chip loading, protein lysates were adjusted to a final concentration of 10 µg per array and combined with PamGene MasterMix. During the assay, samples were circulated through the array at 30 °C with one cycle per minute over 60 cycles. Fluorescence data acquisition was performed using a 12‐bit CCD camera, capturing real‐time fluorescence intensities. End‐point spot intensities were analyzed using the open‐source software ScanAnalyze, with background normalization applied. Statistical comparisons were performed using student's t‐test in R (version 3.6.1), followed by false discovery rate (FDR) correction.

CDK7 = CDK7 (Homo sapiens, UniProt P50613); experiment: Kinase activity profiling, PamChip array, CDK7; type: cell-based; parameters: endogenous in cells; host or cells: PDAC3 primary cells; details: PDAC‐3 primary cells, IC50 concentration, 2 h, Pamgene array
CDK7, sequence (P50613 2-346 limits assumed): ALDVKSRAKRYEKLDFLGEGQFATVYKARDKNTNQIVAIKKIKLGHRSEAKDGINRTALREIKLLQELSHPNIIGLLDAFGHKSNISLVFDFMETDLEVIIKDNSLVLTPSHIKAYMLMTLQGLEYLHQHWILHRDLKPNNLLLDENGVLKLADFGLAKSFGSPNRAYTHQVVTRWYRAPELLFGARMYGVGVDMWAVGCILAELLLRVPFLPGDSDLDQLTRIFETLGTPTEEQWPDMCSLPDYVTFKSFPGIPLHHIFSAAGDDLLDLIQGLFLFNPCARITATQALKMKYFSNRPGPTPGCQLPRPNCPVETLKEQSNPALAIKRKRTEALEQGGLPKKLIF
CDK7, sequence (P51946 whole entry partner): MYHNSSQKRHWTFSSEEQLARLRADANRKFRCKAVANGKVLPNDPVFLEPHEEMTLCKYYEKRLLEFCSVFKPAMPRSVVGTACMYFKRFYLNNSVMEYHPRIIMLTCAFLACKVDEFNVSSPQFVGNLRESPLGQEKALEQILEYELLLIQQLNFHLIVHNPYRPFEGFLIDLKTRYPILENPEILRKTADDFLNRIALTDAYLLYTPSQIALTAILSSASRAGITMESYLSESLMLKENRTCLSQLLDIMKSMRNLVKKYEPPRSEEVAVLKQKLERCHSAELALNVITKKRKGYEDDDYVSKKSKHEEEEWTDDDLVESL
CDK7, sequence (P51948 whole entry partner): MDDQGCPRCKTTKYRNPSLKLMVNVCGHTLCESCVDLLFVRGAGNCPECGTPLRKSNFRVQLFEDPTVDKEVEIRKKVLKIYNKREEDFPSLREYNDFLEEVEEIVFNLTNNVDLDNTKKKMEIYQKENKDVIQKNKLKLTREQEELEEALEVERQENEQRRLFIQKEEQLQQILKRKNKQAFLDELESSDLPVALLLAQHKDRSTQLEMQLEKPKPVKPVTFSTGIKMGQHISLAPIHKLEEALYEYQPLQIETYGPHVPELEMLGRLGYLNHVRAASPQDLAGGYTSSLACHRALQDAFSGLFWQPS
Procedure: as §1

inhibition of phosphorylation, CDK7 (decrease vs untreated controls) (CDK7): 70%
Compound: Nc1ncnc2cc(-c3c[nH]c4ccc(Br)cc34)nn12 [Compound 1b, 7‐(5‐Bromo‐1H‐indol‐3‐yl)pyrazolo[1,5‐a][1,3,5]triazin‐4‐amine]
inhibition of the other kinases (other than CDK7) [1]: below 50%
